Publication doi:10.64898/2025.12.08.692997v2 (biorxiv, 2025)
Like-named read-outs stand apart in the source and are kept apart here.

How the values were obtained:
EphB1-EphrinB2 = EphB1-EphrinB2 (Homo sapiens, UniProt P52799+P54762); test: biolayer interferometry, AUC; format: binding; details: read-out: % inhibition at 3.2 μM
[1] = molecular target: T1, human EphB2-His ectodomain - human EphrinB2-Fc ectodomain (EphB2-EphrinB2 tetramer) (Homo sapiens, UniProt P29323+P52799); test: biolayer interferometry, AUC; format: binding; details: read-out: % inhibition at 3.2 μM
Target sequence in this assay (P29323 19-543): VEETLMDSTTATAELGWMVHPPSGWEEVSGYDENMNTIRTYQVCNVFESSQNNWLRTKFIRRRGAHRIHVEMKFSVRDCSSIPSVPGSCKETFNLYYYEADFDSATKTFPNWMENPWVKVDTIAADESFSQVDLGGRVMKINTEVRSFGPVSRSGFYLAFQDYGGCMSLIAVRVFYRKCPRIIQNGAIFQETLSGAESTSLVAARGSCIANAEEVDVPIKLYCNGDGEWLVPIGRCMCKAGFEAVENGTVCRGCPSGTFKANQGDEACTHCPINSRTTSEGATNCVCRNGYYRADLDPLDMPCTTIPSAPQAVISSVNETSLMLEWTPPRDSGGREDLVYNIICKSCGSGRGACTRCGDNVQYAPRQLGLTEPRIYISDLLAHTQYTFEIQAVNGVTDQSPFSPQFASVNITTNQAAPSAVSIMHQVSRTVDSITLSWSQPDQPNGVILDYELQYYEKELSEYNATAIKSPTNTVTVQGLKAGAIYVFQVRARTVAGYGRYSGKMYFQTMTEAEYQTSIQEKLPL
Target sequence in this assay (P52799 28-229): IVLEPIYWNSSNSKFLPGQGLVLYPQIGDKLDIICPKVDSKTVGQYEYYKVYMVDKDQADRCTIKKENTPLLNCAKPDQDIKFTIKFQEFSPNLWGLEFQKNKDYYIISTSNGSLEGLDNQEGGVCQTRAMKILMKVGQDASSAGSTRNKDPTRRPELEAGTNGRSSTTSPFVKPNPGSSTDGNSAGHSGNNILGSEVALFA

[2] = molecular target: human EphB4-His ectodomain - human EphrinB2-Fc ectodomain (EphB4-EphrinB2) (Homo sapiens, UniProt P52799+P54760); test: biolayer interferometry, AUC; format: binding; details: read-out: % inhibition at 3.2 μM
human EphB4-His ectodomain - human EphrinB2-Fc ectodomain (EphB4-EphrinB2), sequence (P54760 16-539): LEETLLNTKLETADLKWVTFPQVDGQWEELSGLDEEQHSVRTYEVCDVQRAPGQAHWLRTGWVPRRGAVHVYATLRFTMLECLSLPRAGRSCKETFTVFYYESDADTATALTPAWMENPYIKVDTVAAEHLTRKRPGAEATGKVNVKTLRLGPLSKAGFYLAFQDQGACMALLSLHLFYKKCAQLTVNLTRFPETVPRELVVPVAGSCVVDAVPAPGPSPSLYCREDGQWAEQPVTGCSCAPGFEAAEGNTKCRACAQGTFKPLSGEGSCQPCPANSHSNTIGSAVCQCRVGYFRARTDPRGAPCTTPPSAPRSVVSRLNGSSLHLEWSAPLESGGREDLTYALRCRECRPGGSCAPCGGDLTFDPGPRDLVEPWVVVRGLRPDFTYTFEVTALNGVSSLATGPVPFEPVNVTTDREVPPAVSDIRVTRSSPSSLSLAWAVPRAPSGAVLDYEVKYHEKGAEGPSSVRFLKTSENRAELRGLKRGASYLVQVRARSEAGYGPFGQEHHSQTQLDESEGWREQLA
human EphB4-His ectodomain - human EphrinB2-Fc ectodomain (EphB4-EphrinB2), sequence (P52799 28-229): as the sequence (P52799 28-229) above

[3] = molecular target: T1, human EphB2-His ectodomain - human EphrinB2-Fc ectodomain (EphB2-EphrinB2 tetramer); test: biochemical; details: EphrinB2-EphB2 IC50 (Absolute, µM)
Target sequence in this assay (P52799 28-229): as above
Target sequence in this assay (P29323 19-543): as the sequence (P29323 19-543) above

[4] = molecular target: EphrinB2-EphB1 (immobilized human EphrinB2, 25 nM soluble human EphB1) (Homo sapiens, UniProt P52799+P54762); test: biochemical; details: read-out: % Inhibited (AUC) Association
EphrinB2-EphB1 (immobilized human EphrinB2, 25 nM soluble human EphB1), sequence (P52799 whole entry, the tested form may be a part): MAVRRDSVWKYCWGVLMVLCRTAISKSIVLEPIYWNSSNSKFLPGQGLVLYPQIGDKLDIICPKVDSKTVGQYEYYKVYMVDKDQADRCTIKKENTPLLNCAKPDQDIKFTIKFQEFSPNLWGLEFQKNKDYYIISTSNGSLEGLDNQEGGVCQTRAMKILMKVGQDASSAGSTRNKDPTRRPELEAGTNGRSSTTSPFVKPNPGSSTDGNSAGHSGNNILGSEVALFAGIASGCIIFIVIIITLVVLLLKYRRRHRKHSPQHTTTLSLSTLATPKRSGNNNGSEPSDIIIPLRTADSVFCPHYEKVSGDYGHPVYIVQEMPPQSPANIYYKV
EphrinB2-EphB1 (immobilized human EphrinB2, 25 nM soluble human EphB1), sequence (P54762 whole entry, the tested form may be a part): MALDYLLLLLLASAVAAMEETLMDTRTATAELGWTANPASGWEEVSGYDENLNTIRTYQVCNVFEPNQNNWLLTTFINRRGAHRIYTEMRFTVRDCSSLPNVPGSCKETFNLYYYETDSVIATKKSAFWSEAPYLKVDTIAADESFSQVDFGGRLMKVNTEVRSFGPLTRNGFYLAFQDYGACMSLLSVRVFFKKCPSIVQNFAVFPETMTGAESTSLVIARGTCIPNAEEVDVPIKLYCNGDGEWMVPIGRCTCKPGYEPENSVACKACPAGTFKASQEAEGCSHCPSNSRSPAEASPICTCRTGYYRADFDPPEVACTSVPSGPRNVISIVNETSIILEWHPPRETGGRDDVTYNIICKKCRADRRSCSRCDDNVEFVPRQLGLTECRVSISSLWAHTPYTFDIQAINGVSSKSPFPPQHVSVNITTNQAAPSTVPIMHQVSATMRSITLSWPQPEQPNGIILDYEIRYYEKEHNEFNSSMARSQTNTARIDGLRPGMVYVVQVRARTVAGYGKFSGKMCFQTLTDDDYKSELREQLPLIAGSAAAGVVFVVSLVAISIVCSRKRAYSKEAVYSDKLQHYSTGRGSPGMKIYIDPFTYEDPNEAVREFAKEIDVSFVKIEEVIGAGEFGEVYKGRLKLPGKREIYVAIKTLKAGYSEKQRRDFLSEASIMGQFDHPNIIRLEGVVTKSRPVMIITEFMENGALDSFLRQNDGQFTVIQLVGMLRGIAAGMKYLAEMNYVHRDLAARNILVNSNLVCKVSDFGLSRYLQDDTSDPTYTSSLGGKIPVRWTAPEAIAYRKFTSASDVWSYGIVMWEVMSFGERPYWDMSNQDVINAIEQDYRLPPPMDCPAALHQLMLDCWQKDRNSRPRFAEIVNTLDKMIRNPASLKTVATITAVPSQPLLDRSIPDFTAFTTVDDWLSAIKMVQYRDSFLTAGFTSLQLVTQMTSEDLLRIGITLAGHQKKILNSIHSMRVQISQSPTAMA

[5] = molecular target: T1, human EphB2-His ectodomain - human EphrinB2-Fc ectodomain (EphB2-EphrinB2 tetramer); test: biolayer interferometry, AUC of concentration series; format: binding
Target sequence in this assay (P29323 19-543): as the sequence (P29323 19-543) above
Target sequence in this assay (P52799 28-229): as the sequence (P52799 28-229) above

[6] = molecular target: EphrinB2 of mouse pancreatic stellate cells stimulated with mouse EphB2-Fc-His (Mus musculus, UniProt P52800+P54763); test: % pEphrinB2 by IP and immunoblot; format: cell-based
EphrinB2 of mouse pancreatic stellate cells stimulated with mouse EphB2-Fc-His, sequence (P52800 29-336): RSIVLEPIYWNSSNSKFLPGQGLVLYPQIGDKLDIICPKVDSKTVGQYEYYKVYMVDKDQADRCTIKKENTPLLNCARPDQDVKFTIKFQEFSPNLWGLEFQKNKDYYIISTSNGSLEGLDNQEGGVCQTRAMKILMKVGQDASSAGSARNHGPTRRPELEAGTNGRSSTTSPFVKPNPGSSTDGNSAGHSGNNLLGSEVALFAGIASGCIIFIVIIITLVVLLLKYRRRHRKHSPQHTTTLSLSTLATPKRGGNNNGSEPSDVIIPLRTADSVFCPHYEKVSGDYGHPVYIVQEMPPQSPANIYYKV
EphrinB2 of mouse pancreatic stellate cells stimulated with mouse EphB2-Fc-His, sequence (P54763 19-540): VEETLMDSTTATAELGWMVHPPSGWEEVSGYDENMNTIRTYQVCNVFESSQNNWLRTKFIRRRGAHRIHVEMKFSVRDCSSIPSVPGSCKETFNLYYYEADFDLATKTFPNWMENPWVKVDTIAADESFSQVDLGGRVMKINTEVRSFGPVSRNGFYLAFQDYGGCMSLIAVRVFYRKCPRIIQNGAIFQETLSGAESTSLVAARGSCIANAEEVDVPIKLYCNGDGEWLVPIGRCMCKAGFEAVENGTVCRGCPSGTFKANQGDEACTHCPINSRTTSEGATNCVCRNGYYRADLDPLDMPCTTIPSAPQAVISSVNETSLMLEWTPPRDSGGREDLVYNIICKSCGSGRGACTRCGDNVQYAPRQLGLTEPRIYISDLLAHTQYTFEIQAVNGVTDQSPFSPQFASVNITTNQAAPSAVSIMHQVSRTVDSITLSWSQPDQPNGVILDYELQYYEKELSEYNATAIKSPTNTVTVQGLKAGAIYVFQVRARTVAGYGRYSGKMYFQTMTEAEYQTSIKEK

[7] = molecular target: T1, human EphB2-His ectodomain - human EphrinB2-Fc ectodomain (EphB2-EphrinB2 tetramer); test: biochemical
Target sequence in this assay (P29323 19-543): as the sequence (P29323 19-543) above
Target sequence in this assay (P52799 28-229): as the sequence (P52799 28-229) above

EphB1-EphrinB2, sequence (P54762 18-540 limits assumed): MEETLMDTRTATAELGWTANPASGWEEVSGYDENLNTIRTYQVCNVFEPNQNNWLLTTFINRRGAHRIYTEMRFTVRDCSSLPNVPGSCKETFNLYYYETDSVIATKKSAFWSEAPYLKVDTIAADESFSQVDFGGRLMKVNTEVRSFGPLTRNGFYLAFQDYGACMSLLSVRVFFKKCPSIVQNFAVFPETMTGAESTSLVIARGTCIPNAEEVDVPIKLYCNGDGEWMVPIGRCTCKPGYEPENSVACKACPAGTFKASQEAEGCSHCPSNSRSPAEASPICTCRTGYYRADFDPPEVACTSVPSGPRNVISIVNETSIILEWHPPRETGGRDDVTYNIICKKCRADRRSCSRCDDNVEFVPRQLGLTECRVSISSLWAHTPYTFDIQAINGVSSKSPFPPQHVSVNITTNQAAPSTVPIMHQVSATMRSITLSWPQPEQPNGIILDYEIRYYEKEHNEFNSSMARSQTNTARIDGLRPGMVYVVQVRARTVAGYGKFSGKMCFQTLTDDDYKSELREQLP
EphB1-EphrinB2, sequence (P52799 28-229 limits assumed): as the sequence (P52799 28-229) above

inhibition at 3.2 µM (EphB1-EphrinB2) [%]	inhibition at 3.2 µM [1] [%]	inhibition at 3.2 µM [2] [%]	IC50 [3] [µM]	inhibition at 3.2 µM [4] [%]	Ki [5] [nM]	IC50 [6] [nM]	IC50 [7] [nM]	Structure (SMILES)
36.6	61.8	13.9	> 1.6	32.6	–	–	–	Oc1c(I)cc(CN2CCOCC2)c2cccnc12 [A20-I]
–	–	–	–	39.1	2.88	1600	280	Oc1c(Br)cc(CN2CCN(c3ccc(Br)cc3)CC2)c2cccnc12 [BQPB4]
